Data reported in patent US20120082658A1, “Methods for the Treatment of Allergic Diseases” (VentiRx Pharmaceuticals, Inc., priority 2010, published 2012).

What was measured:
Assay type in all cases: cell-based
TLR7 = target: T1, TLR7 (Homo sapiens, UniProt Q9NYK1); assay: HEK293 cells transfected with human TLR7, NF-κB driven reporter; settings: read-out: EC50, activation of TLR7
T1 construct: expressed in transfected cells; host or cells: HEK293
T1 sequence (Q9NYK1 27-1049): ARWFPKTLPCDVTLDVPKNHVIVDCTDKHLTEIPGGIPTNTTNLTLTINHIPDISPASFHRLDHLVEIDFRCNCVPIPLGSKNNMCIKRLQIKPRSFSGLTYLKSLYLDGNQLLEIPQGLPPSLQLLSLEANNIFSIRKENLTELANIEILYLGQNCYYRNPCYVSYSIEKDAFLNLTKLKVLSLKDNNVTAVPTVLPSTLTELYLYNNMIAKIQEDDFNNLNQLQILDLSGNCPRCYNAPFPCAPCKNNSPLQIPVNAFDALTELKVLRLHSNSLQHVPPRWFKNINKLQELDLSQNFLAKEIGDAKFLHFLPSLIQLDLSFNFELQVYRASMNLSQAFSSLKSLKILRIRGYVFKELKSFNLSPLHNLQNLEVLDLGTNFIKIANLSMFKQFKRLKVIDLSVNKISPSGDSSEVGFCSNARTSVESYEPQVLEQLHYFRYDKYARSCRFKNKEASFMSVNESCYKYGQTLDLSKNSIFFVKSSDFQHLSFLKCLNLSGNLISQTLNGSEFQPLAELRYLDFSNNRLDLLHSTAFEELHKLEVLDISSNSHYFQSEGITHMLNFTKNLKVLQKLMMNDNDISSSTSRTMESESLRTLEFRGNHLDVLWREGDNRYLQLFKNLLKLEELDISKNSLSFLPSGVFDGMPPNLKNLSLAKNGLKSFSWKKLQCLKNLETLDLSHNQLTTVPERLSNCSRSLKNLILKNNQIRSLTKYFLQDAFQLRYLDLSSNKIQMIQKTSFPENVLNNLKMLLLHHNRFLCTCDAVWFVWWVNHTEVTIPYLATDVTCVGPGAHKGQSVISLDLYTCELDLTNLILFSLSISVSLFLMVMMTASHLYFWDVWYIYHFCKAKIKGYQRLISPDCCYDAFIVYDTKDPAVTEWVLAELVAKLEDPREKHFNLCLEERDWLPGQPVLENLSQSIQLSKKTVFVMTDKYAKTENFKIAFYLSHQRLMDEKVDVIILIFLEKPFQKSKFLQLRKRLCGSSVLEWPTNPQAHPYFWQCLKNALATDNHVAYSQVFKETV
Procedure: (§1) FIG. 8 is two graphs depicting the potency and selectivity of VTX-378 for TLR8. The half-maximal effective concentration (EC50) for VTX-378 activation of TLR8 and TLR7 was assessed in peripheral blood mononuclear cells (PBMCs) by the amount of secreted TNFα (A) and by the activity of NF-κB (B) from 15 healthy donors and also in HEK293 cells transfected with various human TLRs.
(§2) Preclinical studies were performed with VTX-378, the active pharmaceutical ingredient in VTX-1463. The specificity of VTX-378 for human TLR8 relative to other TLRs was assessed in transfected Human Embryonic Kidney 293 (HEK293) cells engineered to express individual TLRs (2-9) via transfection, and assessed using an NF-κB driven reporter system. […] The pharmacologic effects of VTX-378 were characterized in vitro using isolated human peripheral blood mononuclear cells (PBMCs).

TLR4 = target: T2, TLR4 (Homo sapiens, UniProt O00206+Q9Y6Y9); assay: HEK293 cells transfected with human TLR4, NF-κB driven reporter
T2 construct: expressed in transfected cells; host or cells: HEK293
Procedure: as §1, §2

human whole blood = assay: Co-culture of human whole blood, IL-12 and IL-10 production
Excerpt: FIG. 9 is two graphs depicting that VTX-378 stimulates production of IL-12 and IL-10.

T2 sequence (O00206 24-839): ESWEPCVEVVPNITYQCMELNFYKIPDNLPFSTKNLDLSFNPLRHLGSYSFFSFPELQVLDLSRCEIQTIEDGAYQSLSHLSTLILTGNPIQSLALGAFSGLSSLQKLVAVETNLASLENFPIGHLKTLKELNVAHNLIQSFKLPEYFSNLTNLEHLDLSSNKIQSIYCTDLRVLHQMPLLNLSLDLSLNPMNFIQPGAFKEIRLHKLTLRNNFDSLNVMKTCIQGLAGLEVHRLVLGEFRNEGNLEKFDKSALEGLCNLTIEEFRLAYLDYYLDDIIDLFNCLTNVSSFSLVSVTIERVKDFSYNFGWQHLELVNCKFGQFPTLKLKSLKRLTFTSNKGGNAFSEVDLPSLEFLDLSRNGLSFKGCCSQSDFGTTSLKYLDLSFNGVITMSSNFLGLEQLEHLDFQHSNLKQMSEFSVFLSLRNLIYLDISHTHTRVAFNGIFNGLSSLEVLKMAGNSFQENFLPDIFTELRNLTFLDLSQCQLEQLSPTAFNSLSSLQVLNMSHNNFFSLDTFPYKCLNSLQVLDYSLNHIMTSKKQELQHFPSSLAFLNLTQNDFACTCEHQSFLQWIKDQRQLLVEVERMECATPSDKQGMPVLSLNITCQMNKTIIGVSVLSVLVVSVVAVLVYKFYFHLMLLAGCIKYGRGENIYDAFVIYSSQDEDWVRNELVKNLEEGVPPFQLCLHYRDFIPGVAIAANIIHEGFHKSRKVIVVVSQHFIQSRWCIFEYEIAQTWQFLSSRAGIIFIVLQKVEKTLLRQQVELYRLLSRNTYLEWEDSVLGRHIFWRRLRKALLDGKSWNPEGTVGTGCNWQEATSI
T2 sequence (Q9Y6Y9 17-160 limits assumed): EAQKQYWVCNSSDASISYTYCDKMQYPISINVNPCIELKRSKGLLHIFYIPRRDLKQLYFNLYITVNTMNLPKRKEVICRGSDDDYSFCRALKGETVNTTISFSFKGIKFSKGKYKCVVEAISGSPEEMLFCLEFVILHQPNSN

For CCCN(CCC)C(=O)C1=Cc2ccc(-c3ccc(C(=O)N4CCCC4)cc3)cc2N=C(N)C1 [VTX-378], the EC50 (TLR7) was ~2000 nM, the “activity on TLR4” value (TLR4) was “minimal to no activity” and the “production of IL-10” value (human whole blood) was “dose dependent increase”. The “production of IL-12” value (human whole blood) was “dose dependent increase”.
